Active and inactive are the calls of the source.
Key:
[1] = A cytotoxicity screen of small molecule inhibitors of the PhoP region in Salmonella typhi identified in the primary screen. [Related pubchem assays: 1850, 1864, 1985 ]; type: functional
[2] = biological target: Eukaryotic translation initiation factor 4E (Mus musculus, UniProt P63073); assay: blockers of eIF4G binding by eIF4E – biochemical, TR-FRET, dose response (AID 855); type: functional;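 note: potency for disrupting eIF4E binding to eIF4GI seen as loss of FRET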
X-box-binding protein 1 = biological target: T1, X-box-binding protein 1 (Homo sapiens, UniProt P17861); type: functional, Cricetulus griseus;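 note: confirmatory dose-response counter-screen serving a CHOP assay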
T1 sequence (P17861 whole entry): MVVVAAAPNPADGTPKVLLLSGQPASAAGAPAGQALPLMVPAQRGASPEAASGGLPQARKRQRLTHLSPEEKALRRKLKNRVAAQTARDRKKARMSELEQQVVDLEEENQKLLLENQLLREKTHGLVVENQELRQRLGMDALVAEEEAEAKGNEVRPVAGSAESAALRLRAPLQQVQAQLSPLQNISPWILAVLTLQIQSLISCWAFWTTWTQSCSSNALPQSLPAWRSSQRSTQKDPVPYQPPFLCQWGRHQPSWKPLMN

[3] = biological target: DNA (cytosine-5)-methyltransferase 1 (Homo sapiens, UniProt P26358); assay: inhibition of DNA methylation by DNMT1 – biochemical, fluorescent molecular beacon, confirmation (AID 602386); type: functional
[4] = HIV-1 Vif–A3G interaction blockers – biochemical, TR-FRET, GST-Vif 1-94, biotin-A3G peptide, dose response retest, primary screen (AID 1117319); type: functional;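 note: TR-FRET signal of purified GST-Vif binding a biotinylated A3G peptide; inhibitors lower the FRET signal by blocking Vif and A3G binding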
Hexokinase-1 = biological target: T2, Hexokinase-1 (Homo sapiens, UniProt P19367); assay: SAR analysis of small molecule inhibitors of hexokinase domain containing I (HKDC1) in the hexokinase 1 selectivity assay. [Related pubchem assays (depositor defined):AID493160, AID493190]; type: functional
T2 sequence (P19367 whole entry): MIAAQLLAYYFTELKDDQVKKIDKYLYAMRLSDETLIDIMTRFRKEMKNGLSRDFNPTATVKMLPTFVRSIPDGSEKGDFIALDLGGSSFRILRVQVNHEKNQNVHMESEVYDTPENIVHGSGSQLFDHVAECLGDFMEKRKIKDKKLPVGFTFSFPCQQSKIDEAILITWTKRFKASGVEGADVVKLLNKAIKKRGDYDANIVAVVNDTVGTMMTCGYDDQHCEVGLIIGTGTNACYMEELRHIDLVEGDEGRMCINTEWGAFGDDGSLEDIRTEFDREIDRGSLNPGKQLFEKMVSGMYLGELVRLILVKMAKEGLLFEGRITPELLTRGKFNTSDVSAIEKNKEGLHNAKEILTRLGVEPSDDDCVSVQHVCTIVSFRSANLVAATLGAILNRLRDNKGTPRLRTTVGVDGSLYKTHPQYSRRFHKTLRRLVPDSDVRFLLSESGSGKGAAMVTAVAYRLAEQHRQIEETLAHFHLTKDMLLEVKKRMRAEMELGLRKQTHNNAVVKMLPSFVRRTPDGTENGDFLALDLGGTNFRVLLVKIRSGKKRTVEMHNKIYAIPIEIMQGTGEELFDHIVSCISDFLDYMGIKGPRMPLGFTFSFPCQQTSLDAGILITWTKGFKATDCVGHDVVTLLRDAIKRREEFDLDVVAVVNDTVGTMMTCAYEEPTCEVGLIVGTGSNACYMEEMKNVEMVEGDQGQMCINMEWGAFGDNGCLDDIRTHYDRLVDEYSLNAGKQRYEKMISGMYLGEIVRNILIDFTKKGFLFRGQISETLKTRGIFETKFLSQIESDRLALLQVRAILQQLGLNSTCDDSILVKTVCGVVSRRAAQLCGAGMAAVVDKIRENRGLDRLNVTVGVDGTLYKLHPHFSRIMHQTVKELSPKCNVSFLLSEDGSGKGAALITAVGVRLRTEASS

[5] = bead-based luminescence quenchers, dual-tagged ARNT – biochemical, AlphaScreen, cherry-pick, artefact control for ARNT-TACC3 interaction inhibitor project, dose response (AID 651705); type: functional;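 note: AlphaScreen bead proximity signal that flags compounds interfering with the detection technology; potency reflects signal decrease which marks the compound as an assay artifact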
[6] = luciferase reporter signal suppression in cells – H4 neuroglioma cells, luminescence, dose response (AID 1990); type: functional, cell-based
[7] = alpha-synuclein stem-loop luciferase translation blockers – H4 neuroglioma cells, luminescence, confirmation (AID 1988); type: functional, cell-based
[8] = biological target: Heat shock protein HSP 90-alpha (Homo sapiens, UniProt P07900); assay: Luminescence-based dose response biochemical high throughput screening assay for inhibitors of the Heat Shock Protein 90 (HSP90). [Related pubchem assays: 1831 (Summary AID.), 1846 (Confirmation screen.), 1789 (Primary screen.)]
[9] = biological target: T3, C-C chemokine receptor type 6 (Homo sapiens, UniProt P51684); assay: antagonism of CCR6 beta-arrestin recruitment – cell-based, luminescent beta-arrestin readout, dose response (AID 504728); type: functional
T3 sequence (P51684 whole entry): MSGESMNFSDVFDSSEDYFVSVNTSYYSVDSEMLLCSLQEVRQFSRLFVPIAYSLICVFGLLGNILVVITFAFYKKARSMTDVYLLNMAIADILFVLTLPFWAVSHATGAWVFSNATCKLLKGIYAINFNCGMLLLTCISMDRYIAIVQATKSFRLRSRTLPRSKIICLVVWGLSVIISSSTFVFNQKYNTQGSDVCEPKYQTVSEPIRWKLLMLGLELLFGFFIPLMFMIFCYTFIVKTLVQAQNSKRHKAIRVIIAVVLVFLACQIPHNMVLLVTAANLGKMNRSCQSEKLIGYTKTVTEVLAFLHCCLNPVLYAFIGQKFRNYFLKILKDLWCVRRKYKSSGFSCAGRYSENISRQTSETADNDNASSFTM

[10] = biological target: Dual specificity tyrosine-phosphorylation-regulated kinase 1A (Rattus norvegicus, UniProt Q63470); type: biochemical, Homo sapiens
[11] = viability loss in HeLa cells – cytotoxicity control for MgcRacGAP inhibitor project, dose response (AID 624300); type: functional
[12] = biological target: T4, Sentrin-specific protease 8 (Homo sapiens, UniProt Q96LD8); type: functional
T4 sequence (Q96LD8 whole entry): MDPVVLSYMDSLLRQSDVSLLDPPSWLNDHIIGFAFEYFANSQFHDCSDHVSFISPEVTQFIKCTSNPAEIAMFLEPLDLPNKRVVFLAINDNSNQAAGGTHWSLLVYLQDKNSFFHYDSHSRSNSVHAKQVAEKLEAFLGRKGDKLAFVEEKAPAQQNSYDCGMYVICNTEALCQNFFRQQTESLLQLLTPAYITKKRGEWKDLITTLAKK

[13] = biological target: Induced myeloid leukemia cell differentiation protein Mcl-1 (Homo sapiens, UniProt Q07820); type: functional
[14] = biological target: Glutathione-S-transferase (Schistosoma japonicum, UniProt Q26513); assay: GST-antibody interaction or FRET quenching – biochemical, TR-FRET, artefact control for Vif-APOBEC3G degradation inhibitor project, dose response (AID 1117362); type: functional
Sequence of Glutathione-S-transferase (Q26513 whole entry): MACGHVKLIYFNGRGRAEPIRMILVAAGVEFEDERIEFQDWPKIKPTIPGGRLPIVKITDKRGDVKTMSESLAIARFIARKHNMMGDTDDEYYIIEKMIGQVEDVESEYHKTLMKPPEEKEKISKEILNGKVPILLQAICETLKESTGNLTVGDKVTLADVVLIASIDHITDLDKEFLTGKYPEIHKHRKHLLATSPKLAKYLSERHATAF

Sequence of Induced myeloid leukemia cell differentiation protein Mcl-1 (Q07820 whole entry): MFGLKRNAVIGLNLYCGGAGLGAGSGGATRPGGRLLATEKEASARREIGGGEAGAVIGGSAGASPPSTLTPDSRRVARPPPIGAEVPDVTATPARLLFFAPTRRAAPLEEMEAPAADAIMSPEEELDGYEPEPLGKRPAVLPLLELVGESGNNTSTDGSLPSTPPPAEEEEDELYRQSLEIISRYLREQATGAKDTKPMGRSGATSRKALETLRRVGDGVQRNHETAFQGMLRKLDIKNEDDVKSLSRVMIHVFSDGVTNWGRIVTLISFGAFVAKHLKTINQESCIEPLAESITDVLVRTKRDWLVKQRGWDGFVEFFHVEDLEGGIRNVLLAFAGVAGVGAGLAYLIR
Sequence of Eukaryotic translation initiation factor 4E (P63073 whole entry): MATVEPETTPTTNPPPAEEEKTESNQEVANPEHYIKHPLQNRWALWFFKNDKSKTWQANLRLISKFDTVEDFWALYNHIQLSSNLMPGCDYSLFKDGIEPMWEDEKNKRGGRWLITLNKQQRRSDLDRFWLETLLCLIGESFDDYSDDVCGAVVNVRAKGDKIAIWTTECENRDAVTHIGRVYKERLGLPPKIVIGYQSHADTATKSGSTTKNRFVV
Sequence of DNA (cytosine-5)-methyltransferase 1 (P26358 whole entry): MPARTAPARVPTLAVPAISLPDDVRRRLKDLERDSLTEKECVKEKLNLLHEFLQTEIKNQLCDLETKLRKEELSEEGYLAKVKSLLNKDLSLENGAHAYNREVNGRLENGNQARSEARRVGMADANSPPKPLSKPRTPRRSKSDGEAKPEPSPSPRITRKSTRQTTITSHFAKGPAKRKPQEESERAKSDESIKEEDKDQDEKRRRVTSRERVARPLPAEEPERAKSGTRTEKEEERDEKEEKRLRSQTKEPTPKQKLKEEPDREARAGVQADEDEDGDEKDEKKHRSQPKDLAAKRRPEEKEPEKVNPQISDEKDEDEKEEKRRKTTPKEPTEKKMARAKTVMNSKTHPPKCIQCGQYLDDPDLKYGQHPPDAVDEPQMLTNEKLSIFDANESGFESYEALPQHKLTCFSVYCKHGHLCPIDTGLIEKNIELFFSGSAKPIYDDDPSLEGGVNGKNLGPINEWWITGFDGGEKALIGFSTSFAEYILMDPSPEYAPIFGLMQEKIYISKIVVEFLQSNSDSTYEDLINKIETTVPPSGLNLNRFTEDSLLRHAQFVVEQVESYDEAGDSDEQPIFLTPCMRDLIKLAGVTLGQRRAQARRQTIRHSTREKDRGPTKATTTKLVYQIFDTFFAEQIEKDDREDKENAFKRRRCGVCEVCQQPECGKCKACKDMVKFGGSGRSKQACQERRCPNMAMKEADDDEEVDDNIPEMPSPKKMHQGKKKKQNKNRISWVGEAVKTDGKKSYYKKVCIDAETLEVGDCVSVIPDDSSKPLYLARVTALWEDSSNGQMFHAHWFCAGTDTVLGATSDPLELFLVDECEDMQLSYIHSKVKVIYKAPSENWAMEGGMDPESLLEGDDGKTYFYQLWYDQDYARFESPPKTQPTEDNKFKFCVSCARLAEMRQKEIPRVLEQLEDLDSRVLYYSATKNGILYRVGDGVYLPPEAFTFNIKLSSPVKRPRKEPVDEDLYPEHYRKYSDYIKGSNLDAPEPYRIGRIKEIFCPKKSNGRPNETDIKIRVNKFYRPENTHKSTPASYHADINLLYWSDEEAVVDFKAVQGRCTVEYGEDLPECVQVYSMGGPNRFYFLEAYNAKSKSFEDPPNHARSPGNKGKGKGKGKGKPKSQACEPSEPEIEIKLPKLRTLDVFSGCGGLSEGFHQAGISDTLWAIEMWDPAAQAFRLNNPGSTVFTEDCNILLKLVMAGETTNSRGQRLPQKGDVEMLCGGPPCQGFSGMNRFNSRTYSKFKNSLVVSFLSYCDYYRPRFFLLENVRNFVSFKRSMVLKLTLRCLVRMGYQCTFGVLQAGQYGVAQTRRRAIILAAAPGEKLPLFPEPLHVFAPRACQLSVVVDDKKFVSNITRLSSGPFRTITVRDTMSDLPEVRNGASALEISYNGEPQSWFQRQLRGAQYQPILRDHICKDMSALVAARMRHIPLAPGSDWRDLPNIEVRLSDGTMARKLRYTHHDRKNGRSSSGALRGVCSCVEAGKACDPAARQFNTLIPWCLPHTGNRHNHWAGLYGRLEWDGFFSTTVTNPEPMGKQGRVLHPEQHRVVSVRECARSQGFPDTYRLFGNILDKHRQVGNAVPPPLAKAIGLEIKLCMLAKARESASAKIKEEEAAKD

In the case of `CCc1nnc(NS(=O)(=O)c2ccc(NC(=S)NC(=O)/C=C/c3ccc(C(C)C)cc3)cc2)s1`, the EC50 [1] is reported as > 50 µM (active), the IC50 [2] is reported as 22.9 µM (active) and the “Absolute IC50 (XBP1)” value (X-box-binding protein 1) is reported as 10 µM. For the same molecule, the IC50 [3] was 6.16 µM (active).
With `O=C(/C=C/c1ccco1)Nc1ccc(Oc2ccccc2)cc1` the IC50 [4] was > 100 µM (active).
With `COc1ccc(S(=O)(=O)Nc2cc(SCC(=O)O)c(O)c3ccccc23)cc1` the IC50 (Hexokinase-1) was > 80 µM (inactive) and the AC50 [5] was 104 µM (active).
In the case of `O=C1C(Nc2ccc(O)cc2)=C/C(=N/S(=O)(=O)c2cccs2)c2ccccc21`, the EC50 [6] is reported as 2.88 µM (inconclusive), the EC50 [7] is reported as 5.59 µM (active) and the IC50 [8] is reported as 0.656 µM (active). The IC50 [9] was > 66.6 µM (inactive), the AC50 [10] was 0.883 µM (active) and the CC50 [11] was 2.59 µM (active).
For `COC(=O)C(O)(c1c(C)[nH]n(-c2ccccc2)c1=O)C(F)(F)F` (stereo unspecified), the IC50 [12] was 2.43 µM (active).
With `CC1CC(=O)c2c(cc3c(-c4c(O)cc(O)c5c(O)c6c(cc45)OC(C)CC6=O)c(O)cc(O)c3c2O)O1` (stereo unspecified) [CEPHALOCHROMIN] the IC50 [13] was 1.49 µM (active) and the IC50 [14] was > 100 µM (active).

Reference: ChEMBL document CHEMBL1201862, “PubChem BioAssay data set” (2004)
